In paper PMC8876231, “Analogues of Natural Chalcones as Efficient Inhibitors of AKR1C3” (Metabolites, 2022):
Several values for one entry are separate records, joined by “and”; a condition that tells them apart may be missing. Identical values can stand only once.

Columns and labels:
Format in all cases: biochemical
AKR1C3 = target: T1, AKR1C3 (Homo sapiens, UniProt P42330); test: AKR1C3 enzymatic inhibition assay (∆4-androstene-3,17-dione to testosterone); settings: for IC50: one-site ligand binding fit
T1 construct: GST (own knowledge: pGEX vectors encode N-terminal GST); made in house; host or cells: E. coli BL21 DE3 Codon Plus RP, lysate
T1 sequence (P42330 1-323): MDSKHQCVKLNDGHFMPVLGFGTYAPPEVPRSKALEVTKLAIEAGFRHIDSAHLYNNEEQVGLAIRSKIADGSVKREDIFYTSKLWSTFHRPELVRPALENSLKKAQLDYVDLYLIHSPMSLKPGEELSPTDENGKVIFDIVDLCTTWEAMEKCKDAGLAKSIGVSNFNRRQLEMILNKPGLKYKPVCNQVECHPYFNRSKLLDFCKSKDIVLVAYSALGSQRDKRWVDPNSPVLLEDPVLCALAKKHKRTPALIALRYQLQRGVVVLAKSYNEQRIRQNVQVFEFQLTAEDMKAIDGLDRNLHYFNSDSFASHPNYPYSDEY
Description: (§1) For enzymatic assays and inhibitor testing, all enzymes were cloned into bacterial or mammalian expression vectors. AKR1C3 and the human hydroxysteroid dehydrogenases HSD17B1, HSD17B2, HSD17B4 (SDR domain), HSD17B7, and HSD17B10 were cloned into a pGEX vector as described in [71, 72]. The coding sequences for AKR1C1, AKR1C2, and AKR1C4 were cloned by Gateway technology into the pcDNA3-N-MycDest vector according to the manufacturer’s instructions (Life Technologies, Carlsbad, CA, USA). The p11 plasmid coding for HSD17B14 (S205 variant) was a gift from Udo Opperman SGC Oxford, UK. For assays with HSD17B3, HEK293 cells stably expressing HSD17B3 were used. Enzymes were expressed in E. coli BL21 DE3 or E. coli BL21 DE3 Codon Plus RP (Stratagene, San Diego, CA, USA) or in HEK293 cells as described in [71, 72, 73]. Bacterial and cell pellets were stored at −20 °C and −80 °C, respectively, until use.
(§2) Inhibition assays were carried out as described in [71, 74]. […] For a detailed assay setup, see Supplementary Table S6. The incubation at 37 °C was stopped with 0.21 M ascorbic acid in methanol:acetic acid 99:1 (v:v) after the time needed to convert approximately 30% of the substrate in a control assay with 1% DMSO, without inhibitor candidate. Substrates and products were extracted from the reaction mixture by solid-phase extraction using C18 cartridges (Phenomenex, Aschaffenburg, Germany) and separated by RP–HPLC in a Beckman–Coulter HPLC Gold system, using the Luna 5 µm C18(2), 125 × 4.0 mm column (Phenomenex). The mobile phases used were H2O:ACN (57:43 (v:v); for assays of estrone (E1) to oestradiol (E2), E2 to E1, and ∆4-androstene-3,17-dione to testosterone conversion), H2O:ACN (49:51 (v:v); for assays of progesterone to 20α-hydroxyprogesterone conversion), and H2O:MeOH (35:65 (v:v) for assays of dihydrotestosterone (DHT) to 3α-androstanediol conversion) at a flow rate of 1 mL/min. Radioactivity was detected by online scintillation counting by using a radioactivity monitor (LB506D, Berthold Technologies, Bad Wildbad, Germany). Conversion of substrates to products was determined by integration of the peak area of the substrate and product peaks in percent. For calculation of inhibition, the conversion of control assay (assay without inhibitor) was set to 0% inhibition. All assays were run in triplicates, and mean values ± SD are reported.
For the determination of IC50 values, percent inhibition values were fitted using the Enzyme Kinetics module of SigmaPlot 13.0 and the one-site ligand-binding model according to the formula f = Bmax * abs(x)/(Kd + abs(x)).
(§3) Table S6: Activity assay setup […]
(§4) E1: estrone; E2: 17β-estradiol, A: Δ4-androstene-3,17-dione; T: testosterone, P: progesterone, 20αOHP: 20α-hydroxyprogesterone, DHT: dihydrotestosterone, 3α-Adiol: 3α-androstanediol, NaPi: 100 mM Na-phosphate buffer; PI: C0mplete protease inhibitor (Roche);. E.coli - Expression in E.coli BL21 DE3 Codon Plus RP except E.coli BL21 DE3 […]
(§5) application to antiparasitic and natural product synthesis. Eur J Org Chem […]
(§6) Synthesis of Xanthohumol analogues and discovery of potent thioredoxin reductase inhibitor as potential anticancer agent. J Med Chem 2015, 58,

AKR1C4 = target: T2, AKR1C4 (Homo sapiens, UniProt P17516); test: AKR1C4 inhibition assay (DHT to 3α-androstanediol); settings: 10 µM compound; mean ± SD
T2 construct: Myc (N); expressed in transfected cells; host or cells: HEK293
T2 sequence (P17516 1-323): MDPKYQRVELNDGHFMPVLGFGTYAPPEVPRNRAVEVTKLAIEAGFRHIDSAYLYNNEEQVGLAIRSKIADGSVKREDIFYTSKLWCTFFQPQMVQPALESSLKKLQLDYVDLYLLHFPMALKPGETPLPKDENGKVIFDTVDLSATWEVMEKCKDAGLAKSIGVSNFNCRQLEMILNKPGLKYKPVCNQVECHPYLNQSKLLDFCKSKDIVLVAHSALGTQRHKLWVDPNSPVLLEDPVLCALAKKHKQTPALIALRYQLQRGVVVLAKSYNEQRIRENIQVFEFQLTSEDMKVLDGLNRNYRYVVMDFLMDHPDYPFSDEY
Description: as §1, §2, §3, §4, §5, §6

HSD17B10 = target: T3, HSD17B10 (Homo sapiens, UniProt Q99714); test: HSD17B10 inhibition assay (oestradiol to estrone); settings: 10 µM compound; mean ± SD
T3 construct: GST (own knowledge: pGEX vectors encode N-terminal GST); made in house; host or cells: E. coli BL21 DE3 Codon Plus RP
T3 sequence (Q99714 1-261): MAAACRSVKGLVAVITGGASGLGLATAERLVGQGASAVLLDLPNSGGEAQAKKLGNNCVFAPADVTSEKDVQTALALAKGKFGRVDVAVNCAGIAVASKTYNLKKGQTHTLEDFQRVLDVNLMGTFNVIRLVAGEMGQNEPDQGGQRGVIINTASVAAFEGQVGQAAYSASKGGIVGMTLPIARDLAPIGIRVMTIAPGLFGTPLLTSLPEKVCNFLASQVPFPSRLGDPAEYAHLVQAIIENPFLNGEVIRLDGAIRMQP
Description: as §1, §2, §3, §4, §5, §6

HSD17B14 = target: T4, HSD17B14 (Homo sapiens, UniProt Q9BPX1, T205S); test: HSD17B14 (S205 variant) inhibition assay (oestradiol to estrone); settings: 10 µM compound; mean ± SD
T4 construct: His6 (own knowledge: the SGC p11 vector encodes an N-terminal His tag with TEV site); made in house; host or cells: E. coli BL21 DE3
T4 sequence (Q9BPX1 1-270 T205S): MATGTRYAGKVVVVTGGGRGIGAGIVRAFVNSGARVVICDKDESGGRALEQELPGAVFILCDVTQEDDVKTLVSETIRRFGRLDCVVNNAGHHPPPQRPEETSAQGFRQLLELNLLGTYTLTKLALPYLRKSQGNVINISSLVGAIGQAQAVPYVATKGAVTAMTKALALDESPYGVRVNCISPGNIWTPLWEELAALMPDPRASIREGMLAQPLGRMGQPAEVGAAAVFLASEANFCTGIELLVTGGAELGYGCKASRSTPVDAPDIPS
Description: as §1, §2, §3, §4, §5, §6

[1] = 10 µM compound, ∆4-androstene-3,17-dione reduction, triplicates, mean ± SD, 10 µM
[2] = ∆4-androstene-3,17-dione reduction, mean ± SD
[3] = 10 µM compound, ∆4-androstene-3,17-dione reduction, triplicates, mean ± SD

AKR1C3 Inhibition at 10 µM [%] (AKR1C3; [1]) | IC50 (AKR1C3; [2]) [µM] | Inhibition of AKR1C4 at 10 µM in % (AKR1C4) | Inhibition of HSD17B10 at 10 µM in % (HSD17B10) [%] | Inhibition of HSD17B14 at 10 µM in % (HSD17B14) [%] | inhibition at 10 µM (AKR1C3; [3]) [%] | Fold more active than natural chalcone 18 (AKR1C3) (AKR1C3; compared with chalcone 18) [fold] | inhibition at 10 µM (AKR1C4) [%] | inhibition at 10 µM (HSD17B10) [%] | inhibition at 10 µM (HSD17B14) [%] | SMILES | AKR1C3 Inhibition at 10 µM [%] (AKR1C3; [3])
> 75% and 78.1 ± 2.7% | 2.36 ± 0.54 | 93.3 ± 0.7% and > 75% | 2.2 ± 2.6 | 1.8 ± 7.7 |  |  |  |  |  | COc1ccc(/C=C/C(=O)c2c(O)cc(O)cc2O)cc1 [Compound 19] | 
 | 1.08 ± 0.27 |  |  |  | 90.9 ± 4.6 | 10 | 97 ± 0.9 | 5.2 ± 3.8 | 13.9 ± 2.7 | O=C(/C=C/c1ccc(Cl)cc1Cl)c1c(O)cc(O)cc1O [Compound 23, 2,4-dichloro-2′,4′,6′-trihydroxychalcone] | 
> 75% and 87.9 ± 4.9% | 5.18 ± 1.64 | 91.6 ± 1.5% and > 75% | 8.0 ± 6.5 | -8.0 ± 2.3 |  |  |  |  |  | Cc1ccc(/C=C/C(=O)c2c(O)cc(O)cc2O)cc1 [Compound 21] | 
> 75% and 89.2 ± 6.3% | 1.94 ± 0.32 | 79.6 ± 0.2% and > 75% | -2.5 ± 0.7 | 18.5 ± 9.3 |  |  |  |  |  | Cc1cccc(/C=C/C(=O)c2c(O)cc(O)cc2O)c1 [Compound 20] | 
47.3 ± 6.4% | 11.9 ± 2.03 | 25.0 ± 1.5% | -0.5 ± 6.5 | 24.9 ± 8.1 |  |  |  |  |  | COc1ccc(/C=C/C(=O)c2c(O)cc(O)cc2OC)cc1 [Compound 18] | 

SMILES | AKR1C3 Inhibition at 10 µM [%] (AKR1C3; [1]) | IC50 (AKR1C3; [2]) [µM] | Inhibition of AKR1C4 at 10 µM in % (AKR1C4) | Inhibition of HSD17B10 at 10 µM in % (HSD17B10) [%] | Inhibition of HSD17B14 at 10 µM in % (HSD17B14) [%] | inhibition at 10 µM (AKR1C3; [3]) [%] | Fold more active than natural chalcone 18 (AKR1C3) (AKR1C3; compared with chalcone 18) [fold] | inhibition at 10 µM (AKR1C4) [%] | inhibition at 10 µM (HSD17B10) [%] | inhibition at 10 µM (HSD17B14) [%] | AKR1C3 Inhibition at 10 µM [%] (AKR1C3; [3])
COc1cc(O)cc(O)c1C(=O)/C=C/c1ccc(Cl)cc1Cl [Compound 25] |  |  | 41.6 ± 1.8% | -0.5 ± 7.3 | -3.2 ± 6.3 |  |  |  |  |  | 33.3 ± 6.0
